This is an account of results in patent US20180153842A1, “AMINO ACID SUPPLEMENTATION FOR A HEALTHY MICROBIOTA ECOSYSTEM” (NESTEC S.A., priority 2003, published 2018).

Holding throughout (assay type): in vivo, Sprague-Dawley rats
Common to all, as to conditions: 5% DSS in drinking water for 9 days then 2% for 18 days, feces

The subject of series [1] is Enterobacteria. Briefly: fecal Enterobacteria count in rats. The protocol:
(§1) The animal experiment was conducted as follows: Male Sprague-Dawley rats (n=32) aged 10 months were randomly distributed into 4 experimental groups (described below). During an 8 days acclimatization period, rats had free access to tap water and received a control diet or diets supplemented in amino acids as described below. After this adaptation period, Dextran Sulfate Sodium (DSS)-treated rats received 5% DSS (w/v) in their drinking water for the first 9 days of the experiment and 2% DSS for the following 18 days to induce a chronic colitis.
(§2) ii) Group “DSS”: rats were fed ad libitum with the control diet. They received DSS (free access) dissolved in their drinking water as previously described.
(§3) At the end of the experiment, fecal samples were collected from animals with a sterile spoon into sterile tubes, frozen (liquid nitrogen) in 10% glycerol and then stored at −80° C. until analysis. The fecal microbiota was analyzed quantitatively for Enterobacteria, Bacteroides, Enterococci, Lactobacilli and Bifidobacteria species according to standard methods. Bacteria were counted using selective or semi-selective media. The counts were expressed as log (base 10) cfu/g feces with a lower detection limit of 3.30 log cfu/g and 5.50 log cfu/g of feces for Bacteroides.
(§4) Data are expressed as mean±SEM. […]

For series [2], the system named is Bacteroides. As to the kind of experiment: fecal Bacteroides count in rats. The protocol:
as §1, §2, §3, §4

The test system of series [3] is Enterococci. Briefly: fecal Enterococci count in rats. The protocol:
as §1, §2, §3, §4

For series [4], the system named is Lactobacilli. Briefly: fecal Lactobacilli count in rats. The protocol: as §1, §2, §3, §4

For the substance Dextran Sulfate Sodium [DSS], the “Enterobacteria counts compared to controls” value in series [1] is given as “significantly decreased”. For the same substance, the “Bacteroides counts compared to controls” value in series [2] is given as “increased”. Also, in series [3], the “Enterococci counts compared to controls” value is given as “significantly decreased”. In series [4], the “Lactobacilli counts compared to controls” value is recorded as “significantly decreased”.
